SMILES strings stand for the structures. pIC50: −log10 of the molar value. Values joined by “and” are separate entries in the source; they are usually repeats but may differ in a detail not shown here. Identical values can stand only once.

The term pIC50 denotes the IC50 on a negative log10 scale, so that one unit is a factor of ten.

The test system of the assay is S. Typhimurium GFP reporter counter-screen, fluorescence, 4 h. The assay can be described thus: S. Typhimurium nonspecific reporter signal inhibition – Salmonella Typhimurium, GFP fluorescence, counter-screen for PhoP regulon inhibitor project, dose response (AID 2401).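 Also: S. typhimurium with Mg-insensitive nmpC-GFP reporter grown at 10 µM Mg2+; drop in reporter fluorescence reflects general culture growth inhibition.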 In general terms: Counterscreens check selectivity or assay interference.
On to `COc1cc(Cc2cc(N)nc(N)n2)cc(OC)c1OC`, for which the pIC50 was 6.13. The result for `O=C(N/N=C/c1cc([N+](=O)[O-])ccc1O)c1ccncc1` reads 4.62; that for `Oc1c(Cl)cc(Cl)c2cccnc12`, 4.98; that for `COc1ccc(-c2ccc3c(N)c(C(=O)c4cccc(OC)c4)sc3n2)cc1`, 4.08. Under `O=Nc1ccc(O)c2ncccc12` stands 4.21; under `NC(=NCCCCCCN=C(N)/N=C(\N)Nc1ccc(Cl)cc1)/N=C(\N)Nc1ccc(Cl)cc1`, 5.26 and 5.04 and 4.83; under `CN1CCN(C(c2ccc(C(F)(F)F)cc2)c2cc(Cl)c3cccnc3c2O)CC1` (stereo unspecified), 4.68. The result for `Cc1cc(SCC(=O)N/N=C/c2ccc(O)c(O)c2O)c(C)cc1Br` reads 4.51. As to `O=C1C(=O)c2ccccc2-c2ccccc21`, the negative logarithm of the IC50 (pIC50) is 4.97. The result for `CN(C)C1C(=O)C(C(N)=O)=C(O)C2(O)C(=O)C3=C(O)c4c(O)cccc4C(C)(O)C3CC12` (stereo unspecified) reads 6.00; that for `COc1cnc(-c2ccccn2)[nH]c1=O`, 4.45. The result for `CN(O)/C=c1/ccc2c(n1)C(=O)C=CC=2` reads 4.46; that for `O=CN/N=C/c1c(O)ccc2ccccc12`, 4.43. Under `O=C(c1ccc(F)cc1)C(CN1CCOCC1)c1ccccc1` (stereo unspecified) stands 3.84; under `CN1CCN(c2cc3c(cc2F)c(=O)c(C(=O)O)cn3CCF)CC1`, 6.03.

For `c1cnc2c(c1)ccc1cccnc12`, the pIC50 is 4.61. Consider `Cc1ccc(S(=O)(=O)/N=C2/C=C(Sc3ncn[nH]3)C(=O)c3ccccc32)c(C)c1`, for which the pIC50 is 3.83. Under `Cc1cc(C)c(NC(=O)c2cn3c4c(c(N5CCN(C)CC5)c(F)cc4c2=O)OCC3C)c(C)c1` (stereo unspecified) stands 4.47. Under `CS(=O)(=O)c1ccc([C@@H](O)[C@@H](CO)NC(=O)C(Cl)Cl)cc1` stands 4.06; under `CC[n+]1c(/C=C/c2ccc(N(C)C)cc2)ccc2ccccc21`, 4.43.

In the case of `Oc1c(C(Nc2ccccn2)c2ccccn2)ccc2cccnc12` (stereo unspecified), the pIC50 is 4.40.

Turning to `Clc1ccc(OCCCNCc2ccccc2)c(Br)c1`, the negative logarithm of the IC50 (pIC50) was 4.33. `CCOc1cc(/C=N/N=C(N)N)ccc1OCc1ccc(Cl)cc1`: the pIC50 is 4.28. The result for `Cc1ccccc1OCc1n(CC(=O)OC2CC(C)CCC2C(C)C)c2ccccc2[n+]1C` (stereo unspecified) reads 4.18; that for `CCCCCCCCCCCCCCCC[N+](C)(C)CC`, 4.59. The result for `Cc1nn(-c2ccccc2)c(N2CCCC2)c1/C=N/Nc1ccc(S(N)(=O)=O)cc1[N+](=O)[O-]` reads 4.05; that for `CC1CCc2c(N3CCC(O)CC3)c(F)cc3c(=O)c(C(=O)O)cn1c23` (stereo unspecified), 4.82. Under `Cc1nc2c(=O)n(C)c(=O)nc-2n(C)n1` stands 5.96. Turning to `c1ccc(-c2cccc(-c3ccccn3)n2)nc1`, the pIC50 was 4.67. In the case of `COc1cc(C)c(Cc2cnc(N)nc2N)cc1OC`, the negative logarithm of the IC50 (pIC50) is 5.69. The result for `O=C(N/N=C\c1cccc([N+](=O)[O-])c1O)C1COc2ccccc2O1` (stereo unspecified) reads 4.26; that for `CCn1cc(C(=O)NCCO)c(=O)c2cc(F)c(N3CCN(C)CC3)cc21`, 4.37. As for `CCCCCCCCNC(C)C(O)c1ccc(SC(C)C)cc1` (stereo unspecified), the negative-log IC50 (pIC50) is 4.12. Regarding `Cc1ccc(-c2c[n+](CC(=O)Nc3nc(-c4ccc(F)cc4)cs3)c3n2CCC3)cc1`, the pIC50 is 4.37. Under `CCCC(=O)NC(c1cccs1)c1cc([N+](=O)[O-])c2cccnc2c1O` (stereo unspecified) stands 4.59; under `CCn1cc(C(=O)O)c(=O)c2cc(F)c(N3CCN(C(=S)NC(=O)c4cccc(C)c4)CC3)cc21`, 4.46; under `CC(=O)NC(c1ccc2ccccc2c1)c1ccc2cccnc2c1O` (stereo unspecified), 4.00. `CCN(CC)S(=O)(=O)c1cccc(C(=O)N/N=C/c2ccc(O)c(O)c2O)c1`: the pIC50 is 4.01. As for `CCOC(=O)C1=Nc2ccccc2C1=[N+]=[N-]`, the pIC50 is 4.37. The result for `Nc1nc(N2CCN(C/C=C/c3ccccc3)CC2)nc2ccccc12` reads 3.97; that for `CCCCCCCCCC[n+]1cccc2c3ccccc3ccc21`, 4.63.
